Laboratory results reported in patent US20230340012A1, “NATURAL AND SYNTHETIC COMPOUNDS FOR TREATING CANCER AND OTHER DISEASES” (PACIFIC ARROW LIMITED, priority 2009, published 2023).

What was measured:
cancer cells = test: Inhibition of cancer growth, cancer invasion, cell invasion or cancer cell invasion; format: cell-based
Source text: The program is based on our purification methods and biological assays including the MTT assay. See International Application No. PCT/US05/31900, filed Sep. 7, 2005, U.S. Serial No. 11/289,142, filed Nov. 28, 2005, and U.S. Serial No. 11/131551, filed May 17, 2005, and PCT/US2008/002086, 1188-ALA-PCT, filed Feb. 15, 2008, 12/344,682, 1020-B1-US, filed Dec. 29, 2008. The details of Analysis of gene expression of ES2 cells after Y-treatment by Microarray, Data Analysis Methods and Western blot in PCT/US2008/002086, 1188-ALA-PCT, filed Feb. 15, 2008, and the cell invasion experiments methods in International Application PCT/US2010/0042240, filed Jul. 16, 2010.

Erythrocytes (RBC) = test: The haemolytic assay; conditions: in words, no concentration given
[1] = system: ANGPT2, DDIT3, LIF and NFKB1Z; conditions: Real-time PCR; results in Table 19-21 of PCT/US09/34115; cited from earlier work

| SMILES | inhibiting cancer growth, cancer invasion, cell invasion or cancer cell invasion (cancer cells) | hemolytic activity (Erythrocytes (RBC)) | expression of the genes ANGPT2, DDIT3, LIF and NFKB1Z [1] |
| --- | --- | --- | --- |
| C/C=C(/C)C(=O)O[C@H]1[C@H](OC(=O)/C(C)=C\C)[C@@]2(CO)C(CC1(C)C)C1=CCC3[C@@]4(C)CC[C@H](O)C(C)(C)C4CC[C@@]3(C)[C@]1(C)[C@@H](O)[C@H]2O (stereo partly shown) [ACH-Y3] | has the ability to inhibit | less potent | increase |
| C/C=C(/C)C(=O)O[C@H]1[C@H](OC(=O)/C(C)=C\C)[C@@]2(CO)C(CC1(C)C)C1=CCC3[C@@]4(C)CC[C@H](O[C@@H]5OC(C(=O)O)[C@@H](O)[C@@H](O[C@@H]6O[C@@H](CO)[C@@H](O)C6O)C5O[C@@H]5OC(CO)[C@H](O)[C@@H](O)C5O)C(C)(C)C4CC[C@@]3(C)[C@]1(C)[C@@H](O)[C@H]2O (stereo partly drawn) [Compound Y, 3-O-[β-D-galactopyranosyl (1→2)]-α-L-arabinofuranosy (1→3)-β-D-glucuronopyranosyl-21,22-O-diangeloyl-3β, 15α, 16α, 21β, 22α, 28-hexahydroxyolean-12-ene] |  |  | increase |
